From patent US20130224219A1, “DRUG AND METHOD FOR THE PROPHYLAXIS OF HIV INFECTION AND FOR THE PROPHYLAXIS AND TREATMENT OF DISEASES CAUSED BY OR ASSOCIATED WITH HIV, INCLUDING AIDS” (priority 2010, published 2013)

Tested on: HIV-1-LAI
Test: Inhibition of HIV replication in human peripheral blood mononuclear cells infected in vitro, p24 ELISA
Assay type: cell-based
Settings: Human immunodeficiency virus 1, PBMC, read-out: inhibition of HIV replication (nucleocapsid core protein p24 in cell supernatants)
Method: Antiretroviral action of the claimed medicinal agent was studied by inhibiting the replication of HIV in the culture of mononuclear cells of the peripheral human blood which were infected in vitro by the strain of HIV-1-LAI. Effective inhibition of HIV replication was evaluated by the content of basic nuclecapsid protein r24 in the supernatant of HIV.
Human peripheral blood mononuclear cells were isolated from the blood of healthy seronegative donors by density gradient centrifugation of Ficoll-Hypaque. Cells were activated for 3 days with […] phytogemmaglyutin P and 5 ME/ml of recombinant human interleukin-2 […]
Cell culture supernatants were collected at day 7 after infection. Efficacy of the drugs was determined by the inhibition of HIV replication, which was evaluated by content nucleocapsid core protein p24 of HIV in cell supernatants by ELISA (Retrotek Elisa kit).
Antiretroviral effect of the claimed medicinal agent studied by inhibiting HIV replication in cultured peripheral blood mononuclear cells of human infected in vitro HIV-1-LAI. Effective inhibition of HIV replication was evaluated by the content of basic nucleocapsid protein p24 in the supernatants of HIV. […]

Work on `Cc1cn([C@H]2C[C@H](N=[N+]=[N-])[C@@H](CO)O2)c(=O)[nH]c1=O` [AZT, zidovudine] yielded an inhibition at 1 µM of 99%.
